12 compounds from paper PMC8911944, “Screening of Natural Products Inhibitors of SARS-CoV-2 Entry” (Molecules, 2022) can be followed below.

Values after ≈ are worked out from the molar mass of the structure shown.

Tested on in one data set: not listed separately
Description: Cytotoxicity assay, resazurin method. As to conditions: human, HEK293T-ACE2 cells, HEK-293T ACE2 cells, unit inferred. The format is cell-based. The protocol: (§1) The maximum non-toxic concentration was assessed using the resazurin method. Briefly, HEK293T-ACE2 cells were cultured at 1 × 10^4 cells/well in a 96-well plate in the presence of different concentrations of the natural products. Vehicle (DMSO)-treated cells were used as a control and normalizer. Resazurin was added 48 h later, and after 3 h, cell viability was determined. Absorbance was measured on the MultiskanTM GO (ThermoScientific, Waltham, MA, USA) at 570 and 630 nm. The MNTC is the maximum concentration with a cytotoxicity lower than 10%.
On the technique in general: The colour change of resazurin is a common sign of viable cells or microbes.
Compound `C=C1CC/C=C(\C)CC[C@@H]2[C@@H]1CC2(C)C` [β-Caryophyllene] registered a CC50 at 48 h of 183 µg/mL (≈ 896 µM).

A further data set deals with HEK293T-ACE2 cells. The experiment in a line: Cytotoxicity assay, resazurin method. The format is cell-based. As to conditions: maximum concentration with cytotoxicity lower than 10%. As to the method: as §1
With `C=C1CC[C@H]2O[C@]2(C)CC[C@@H]2[C@@H]1CC2(C)C` [Caryophyllene Oxide], the “MNTC (maximum non-toxic concentration)” value is 31.25 µg/mL.
Still for that read-out and setting: with `C/C=C/[C@H]1OC(=O)C=C[C@H]1OC(C)=O` [Acetylphomolactone] the figure was 4.5 µg/mL; with `C=CC(C)(O)CCC=C(C)C` (centres unmarked) [Linalool], 125 µg/mL.
The same measure, in the same setting: then `C[C@H]1CC[C@@H](C(C)(C)O)CC2=C1CC[C@@H]2C` [Guaiol], with 33.3 µg/mL.
The same measure, in the same setting: then Isoasperline, with 7.19 µg/mL; and S-Limonene, with 31.25 µg/mL.
For the compound `C=C(C)[C@H]1CC=C(C)CC1` [R-Limonene], the “MNTC (maximum non-toxic concentration)” value came out at 31.25 µg/mL.
Consider `CC1=C[C@H](O)[C@H]2C[C@@H]1C2(C)C` (relative stereo) [cis-Verbenol], for which the “MNTC (maximum non-toxic concentration)” value is 250 µg/mL.
The same measure, in the same setting: then `CC(O)[C@@H]1NC(=O)c2cccn2C1=O` (some centres unmarked) [Macrophominol], with 36 µg/mL; and `CC(=O)C1COC(O)C1C` (centres unmarked) [Botryodiplodin], with 3 µg/mL; and `CC(=O)OC1C=CC(=O)OC1C1OC1C` (centres unmarked) [Asperline], with 7.81 µg/mL.
The same measure, in the same setting: then `C=C1CC/C=C(\C)CC[C@@H]2[C@@H]1CC2(C)C` [β-Caryophyllene], with 125 µg/mL.

The subject of another data set is pseudotyped virus carrying the vesicular stomatitis virus glycoprotein G (VSV-G).
Assay: not given
Conditions: not given
The format is cell-based.
For `C=C1CC/C=C(\C)CC[C@@H]2[C@@H]1CC2(C)C` [β-Caryophyllene], the “inhibitory activity against the entry of the VSV-G-pseudotyped virus” value is “low inhibitory activity”.

What is called CC50 is the concentration at which the toxic effect on the cells reaches its halfway point.
